Assay results from US12227577B2, “Combination of a PD-1 antagonist, an ATR inhibitor and a platinating agent for the treatment of cancer” (Merck Patent GMBH, priority 2018, dated 2025).
“And” between values parts separate entries of the source, which are not always exact repeats. Equal entries are not always repeated.

Tests used:
[1] = tested on: MC38 colorectal cancer syngeneic model; assay: Experiment 2A: triple combination of Avelumab, Cisplatin and ATRi 1 in subcutaneous MC38 model; type: in vivo, C57BL/6 mice; settings: Exp. 2A; for Tumor-free mice on day 66: 10 mice per group; for Median survival: Kaplan-Meier, survival data up to day 66, euthanized at tumor burden of 3,000 mm^3; for TGI % (%) / T/C (%) / anti-tumor activity: day 17; for T/C (%): treated vs control group mean volume; for anti-tumor activity: in words
Source text: The objective of this study was to evaluate the in vivo anti-tumor efficacy of a triple combination treatment comprising avelumab, a platinating agent (cisplatin or carboplatin) and ATRi 1 (Compound 1) in the subcutaneous MC38 colorectal cancer syngeneic model in C57BL/6 mice.
The tumor cells were routinely subcultured twice weekly by trypsin-EDTA treatment.
Treatments were started on day 7 after tumor inoculation when the average tumor size reached approximately 80 mm^3. […] Each group consisted of 10 tumor-bearing mice.
(§1) The major endpoint was to see if the tumor growth could be delayed or mice could be cured. Tumor size was measured twice weekly in two dimensions using a caliper, and the volume was expressed in mm^3 using the formula: V=0.5 a×b^2 where a and b are the long and short diameters of the tumor, respectively. The tumor size was then used for calculation of T/C values. The T/C value (in percent) is an indication of antitumor effectiveness; T and C are the mean volumes of the treated and control groups, respectively, on a given day. TGI was calculated for each group using the formula: TGI (%)=[1−(Ti−T0)/(Vi−V0)]×100; Ti is the average tumor volume of a treatment group on a given day, TO is the average tumor volume of the treatment group on the day of treatment start, Vi is the average tumor volume of the vehicle control group on the same day with Ti, and V0 is the average tumor volume of the vehicle group on the day of treatment start. Animals were euthanized as they reached tumor burden of 3,000 mm^3 per IACUC regulations and the time to reach this endpoint was used for Kaplan-Meier survival analysis.
Statistical analysis of difference in the tumor volume among the groups were conducted on the data obtained at the best therapeutic time point on day 17 after the start of treatment). A one-way ANOVA was performed, and when a significant F-statistics (a ratio of treatment variance to the error variance) was obtained, comparisons between groups were carried out with Games-Howell test. All data were analyzed using SPSS 17.0. p<0.05 was considered to be statistically significant.
(§2) Statistical analysis of difference in survival rate among the groups were conducted on the survival data up to day 66 after the start of treatment. Kaplan-Meier test was performed, all data were analyzed using GraphPad Prism 6.0., comparisons between groups were carried out with Log-rank test, p<0.05 was considered to be statistically significant.
The anti-tumor efficacy of the triple combination avelumab, cisplatin and ATRi 1 was tested according to the above methods and with the experimental design outlined in Table 2.

[2] = tested on: MC38 colorectal cancer syngeneic model; assay: Experiment 2B: triple combination of Avelumab, Carboplatin and ATRi 1 in subcutaneous MC38 model; type: in vivo, C57BL/6 mice; settings: Exp. 2B; for Tumor-free mice on day 66: 10 mice per group; for Median survival: Kaplan-Meier, survival data up to day 66, euthanized at tumor burden of 3,000 mm^3; for TGI % (%) / T/C (%) / anti-tumor activity: day 17; for T/C (%): treated vs control group mean volume; for anti-tumor activity: in words; for Tumor Size (mm^3) at day 17: day 17 after start of treatment, Mean ± SEM, Avelumab 400 μg i.v. days 3, 6, 9, Carboplatin 60 mg/kg i.p., ATRi 1 60 mg/kg p.o. days 0, 7
Protocol: The MC38 tumor cells were maintained in vitro as a monolayer culture in DMEM+2 mM glutamine supplemented with 10% heat inactivated fetal bovine serum, 100 U/ml penicillin and 100 μg/ml streptomycin at 37° C. in an atmosphere of 5% CO2 in air. The tumor cells were routinely subcultured twice weekly by trypsin-EDTA treatment. The cells growing in an exponential growth phase were harvested and counted for tumor inoculation.
Each mouse was inoculated subcutaneously at the right upper flank with MC38 cells (3×10^5) in 0.1 mL of PBS for tumor development. Treatments were started on day 7 after tumor inoculation when the average tumor size reached approximately 80 mm^3. The animals were assigned into groups using an Excel-based randomization software performing stratified randomization based upon their tumor volumes. Each group consisted of 10 tumor-bearing mice. The tested compounds were administered to the mice according to the predetermined regimen shown in the experimental design Table 2 and Table 6, respectively.
as §1
A one-way ANOVA was performed, and when a significant F-statistics (a ratio of treatment variance to the error variance) was obtained, comparisons between groups were carried out with Games-Howell test. All data were analyzed using SPSS 17.0. p<0.05 was considered to be statistically significant.
as §2
The anti-tumor efficacy of the triple combination avelumab, carboplatin and ATRi 1 was tested according to the above methods and with the experimental design outlined in Table 6.

[3] = tested on: MB49 syngeneic tumor model; assay: Triple combination treatment in murine subcutaneous MB49 tumor model; type: in vivo, C57BL/6 female mice; settings: for Median survival: Kaplan-Meier, sacrificed when tumor volume reached 2000 mm^3; for Tumor Size (mm^3) at day 18: day 18, Mean ± SEM, Avelumab 400 μg i.v. days 3, 6, 9, Carboplatin 60 mg/kg i.p., ATRi 1 60 mg/kg p.o. days 0, 7; for TGI % (%): day 18 after start of treatment, vs control group; for tumor growth inhibition effect: in words, compared to the control group
Protocol: C57BL/6 female mice at 8-9 weeks of age where subcutaneously injected into the right flank with 0.5×10^6 of viable MB49 tumor cells in 0.1 mL PBS. The animals were randomized and therapy initiated when the tumors reached a volume of around 100 mm^3 (day 0 of treatment). Each group consisted of 10 tumor-bearing mice. The tested compounds were administered to the mice according to the predetermined regimen shown in the experimental design Table 14:
The tumor size was then used for calculation of T/C values.
The body weight was also measured twice a week. Mice were sacrificed when the tumor volume reached 2000 mm^3.
One-way analysis of variance (ANOVA) with Bonferroni's Multiple Comparisons Test, two-way ANOVA, unpaired t-test and Log-rank test from the GraphPad Prism software package were used (Prism 5 for Windows, Version 5.0, GraphPad Software Inc., San Diego, CA). p<0.05 was considered to be statistically significant.

[4] = 10 mg/kg dose; cited from earlier work

Compound | Tumor-free mice on day 66 [1] | Median survival [1] [days] | TGI % (%) [1] [%] | T/C (%) [1] [%] | anti-tumor activity [1] | Tumor-free mice on day 66 [2] | Median survival [2] [days] | TGI % (%) [2] [%] | T/C (%) [2] [%] | anti-tumor activity [2] | Median survival [3] [days] | Tumor Size (mm^3) at day 18 [3] [mm^3] | TGI % (%) [3] [%] | tumor growth inhibition effect [3] | Tumor Size (mm^3) at day 17 [2] | receptor occupancy [4] | tolerability [4]
CNCc1ccc(-c2cc(-c3nc(-c4ccc(S(=O)(=O)C(C)C)cc4)cnc3N)on2)cc1 [ATRi 1, 3-[3-(4-Methylaminomethyl-phenyl)-isoxazol-5-yl]-5-[4-(propane-2-sulfonyl)-phenyl]-pyrazin-2-ylamine] | 0/10 | 24 | 11.6 | 88.9 | minor anti-tumor activity | 0/10 | 21 | −31.2 | 129.5 | minor anti-tumor activity | 21 | 2087 ± 333 | 7.8 | did not show any significant tumor growth inhibition effect | – | – | –
N.N.O=C([O-])C1(C(=O)[O-])CCC1.[Pt+2] [Carboplatin, reference compound] | – | – | – | – | – | 0/10 | 28 | 55.5 | 47.6 | minor anti-tumor activity | 21 | 1814 ± 212 | 19.9 | did not show any significant tumor growth inhibition effect | 671 mm^3 and 671 ± 160 mm^3 | – | –
N.N.[Cl][Pt][Cl] [Cisplatin, reference compound] | 0/10 | 28 | 38.7 | 63.1 | minor anti-tumor activity | – | – | – | – | – | – | – | – | – | – | – | –
Avelumab: fully human monoclonal antibody of the immunoglobulin (Ig) G1 isotype; selectively binds to PD-L1 | 0/10 | 26 | 41.8 | 60.2 | minor anti-tumor activity | 0/10 | 31 | 47.8 | 54.9 | minor anti-tumor activity | 22.5 | 1378 ± 175 | 39.1 | moderate tumor growth inhibition effect | 774 mm^3 and 774 ± 153 mm^3 | excellent | well tolerated
